Reference: patent publication US9630949B2, “Oxoazetidine derivatives, process for the preparation thereof and use thereof in human medicine and in cosmetics” (GALDERMA RESEARCH & DEVELOPMENT, priority 2008, dated 2017)

Legend:
[1] = biological target: hMC1R (Homo sapiens (Human), UniProt Q01726); test: Transactivation test: melanocortin receptors (pCRE-Luc luciferase reporter), hMC1R; assay type: cell-based; conditions: HEK293 transfected with pCRE-Luc and hMC1R; products tested alone (agonist), 6 h incubation; % activity vs NDP-MSH 10 nM; IA: inactive
Sequence of hMC1R (Q01726 whole entry): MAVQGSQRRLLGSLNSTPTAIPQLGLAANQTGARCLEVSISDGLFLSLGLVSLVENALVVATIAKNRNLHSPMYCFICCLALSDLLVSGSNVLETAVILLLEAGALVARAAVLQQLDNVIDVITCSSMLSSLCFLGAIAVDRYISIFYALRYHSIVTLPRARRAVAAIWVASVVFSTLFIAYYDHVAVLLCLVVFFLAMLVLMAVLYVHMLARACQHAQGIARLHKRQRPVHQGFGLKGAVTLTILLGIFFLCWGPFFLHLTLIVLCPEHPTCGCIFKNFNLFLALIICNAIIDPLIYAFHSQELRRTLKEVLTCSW
Method in brief: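 HEK293 cells carrying the pCRE-Luc reporter and hMC1R vectors were grown in DMEM with 10% foetal calf serum at 37° C., 5% CO2, then plated at 5000 cells per well in 384-well plates in serum-free DMEM overnight. Products dissolved at 10 mM in DMSO were added alone as 10-point, 4-fold dilutions from 10 μM (0.1% DMSO) and incubated 6 h. Luciferase luminescence was read on Top-Count after lysis with luciferin, normalized to NDP-MSH 10 nM (100%) and cells alone (0%), and EC50 in nM derived with XLFit.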

[2] = biological target: hMC4R (Homo sapiens (Human), UniProt P32245); test: Transactivation test: melanocortin receptors (pCRE-Luc luciferase reporter), hMC4R; assay type: cell-based; conditions: HEK293 transfected with pCRE-Luc and hMC4R; products tested alone (agonist), 6 h incubation; % activity vs NDP-MSH 10 nM; IA: inactive
Sequence of hMC4R (P32245 whole entry): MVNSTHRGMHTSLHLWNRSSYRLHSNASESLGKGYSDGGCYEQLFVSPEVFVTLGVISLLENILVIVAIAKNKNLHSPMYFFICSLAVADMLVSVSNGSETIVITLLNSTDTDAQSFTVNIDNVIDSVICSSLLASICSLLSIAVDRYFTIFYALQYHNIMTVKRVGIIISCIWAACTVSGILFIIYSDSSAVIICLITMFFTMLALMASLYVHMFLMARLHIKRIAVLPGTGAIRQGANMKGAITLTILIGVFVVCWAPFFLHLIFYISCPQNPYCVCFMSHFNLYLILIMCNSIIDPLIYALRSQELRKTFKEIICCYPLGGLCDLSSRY

| SMILES | EC50 [1] | EC50 [2] |
| --- | --- | --- |
| CC#CCC1(c2ccccc2C)CN(C(=O)[C@@H](Cc2ccc(OC)cc2)NC(=O)CCc2c[nH]cn2)C1 [Compound 75, N-[(R)-2-(3-But-2-ynyl-3-o-tolylazetidin-1-yl)-1-(4-methoxybenzyl)-2-oxoethyl]-3-(1H-imidazol-4-yl)propionamide] | 60 nM | 4000 nM |
| COc1ccc(C[C@@H](NC(=O)CCc2c[nH]cn2)C(=O)N2CC(OCC3CCCCC3)(c3ccccc3C)C2)cc1 [Compound 77, N-[(R)-2-(3-Cyclohexylmethoxy-3-o-tolylazetidin-1-yl)-1-(4-methoxybenzyl)-2-oxoethyl]-3-(1H-imidazol-4-yl)propionamide] | 120 nM | 2000 nM |
| COc1ccc(C[C@@H](NC(=O)CCc2c[nH]cn2)C(=O)N2CC(OCCCC(F)(F)F)(c3ccccc3C)C2)cc1 [Compound 78] | 120 nM | 2000 nM |

Now those with a lower EC50 [1], led by results:

| EC50 [1] | EC50 [2] | SMILES |
| --- | --- | --- |
| 30 nM | 4000 nM | CC#CCOC1(c2ccccc2C)CN(C(=O)[C@@H](Cc2ccc(OC)cc2)NC(=O)CCc2nc[nH]c2C)C1 [Compound 76, N-[(R)-2-(3-But-2-ynyloxy-3-o-tolylazetidin-1-yl)-1-(4-methoxybenzyl)-2-oxoethyl]-3-(5-methyl-1H-imidazol-4-yl)propionamide] |
| 15 nM | 1000 nM | COc1ccc(C[C@@H](NC(=O)CCc2nc[nH]c2C)C(=O)N2CC(OCC3CCC3)(c3ccccc3C)C2)cc1 [Compound 79, N-[(R)-2-(3-Cyclobutylmethoxy-3-o-tolylazetidin-1-yl)-1-(4-methoxybenzyl)-2-oxoethyl]-3-(5-methyl-1H-imidazol-4-yl)propionamide] |
| 15 nM | 4000 nM | COc1ccc(C[C@@H](NC(=O)CCc2nc[nH]c2C)C(=O)N2CC(OCC=C(C)C)(c3ccccc3C)C2)cc1 [Compound 80, N-[(R)-1-(4-Methoxybenzyl)-2-[3-(3-methylbut-2-enyloxy)-3-o-tolylazetidin-1-yl]-2-oxoethyl)-3-(5-methyl-1H-imidazol-4-yl)propionamide] |
